The text below walks through data of ChEMBL document CHEMBL1949604, “Drug-like properties: guiding principles for the design of natural product libraries” (J Nat Prod, 2012).

Assay [1] deals with Trypanosoma brucei brucei. In words: Antitrypanosomal activity against Trypanosoma brucei brucei at 80 uM. In kind it is functional.
Assay [2] deals with Trypanosoma brucei brucei. Briefly: Antitrypanosomal activity against Trypanosoma brucei brucei. It counts as functional, organism-based.

Molecules are shown by their SMILES.

As usually defined, the inhibition is the relative decrease from the control value, in per cent. A low value points to a weak effect. With `COC1=C(Br)[C@H](O)[C@@]2(C=C1Br)CC(C(=O)NCCCn1cnc(CCNC(=O)C3=NO[C@]4(C=C(Br)C(OC)=C(Br)[C@@H]4O)C3)c1)=NO2` [PSEUDOCERATINAZOLE A], the inhibition at 80 µM in assay [1] is 80%. By IC50 is commonly meant the midpoint of a concentration-inhibition curve. A low value points to inhibition by little substance. `O=C1c2cccnc2-c2nccc3c2c1nc1ccccc13` [ASCIDIDEMIN] came in with an IC50 in assay [2] of 32 nM. In assay [2], `c1ccc2c(c1)Nc1cc3cccnc3c3nccc-2c13` had an IC50 of 77 nM. In assay [2], `c1ccc2c(c1)nc1c3nc4ccccc4c4ccnc(c5nccc2c51)c43` [EILATIN] had an IC50 of 1330 nM.
